Source: PubChem BioAssay (NCI)
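Dose response: 5 concentrations. Exposure: 48 h. Format: 96-well plates. Endpoint: linear interpolation; highest concentration if not reached. Abbreviation: GI50, concentration required for 50% inhibition of growth. TGI denotes the concentration required for complete inhibition of growth.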

Tests used:
Assay in all cases: NCI tumour cell line growth inhibition, 48 h
SF-295 CNS = test system: SF-295 CNS
A549 NSCLC = test system: A549 NSCLC
UACC-62 melanoma = test system: UACC-62 melanoma
RXF 393 renal = test system: RXF 393 renal
HT29 colon = test system: HT29 colon
SW-620 colon = test system: SW-620 colon
NCI-H226 lung = test system: NCI-H226 lung
HCT-15 colon = test system: HCT-15 colon
HL-60(TB) leukemia = test system: HL-60(TB) leukemia
SNB-75 CNS = test system: SNB-75 CNS

Row | Compound | TGI (SF-295 CNS) [µM] | TGI (A549 NSCLC) [µM] | TGI (UACC-62 melanoma) [µM] | TGI (RXF 393 renal) [µM] | TGI (HT29 colon) [µM] | TGI (SW-620 colon) [µM] | GI50 (NCI-H226 lung) [µM] | TGI (NCI-H226 lung) [µM] | TGI (HCT-15 colon) [µM] | TGI (HL-60(TB) leukemia) [µM] | TGI (SNB-75 CNS) [µM] | GI50 (SF-295 CNS) [µM] | GI50 (A549 NSCLC) [µM] | GI50 (RXF 393 renal) [µM] | GI50 (HT29 colon) [µM] | GI50 (SW-620 colon) [µM] | GI50 (HCT-15 colon) [µM] | GI50 (HL-60(TB) leukemia) [µM] | GI50 (SNB-75 CNS) [µM] | GI50 (UACC-62 melanoma) [µM]
1 | C[C@@H](CN1CC(=O)NC(=O)C1)N1CC(=O)NC(=O)C1 | 779 | 692 | 570 | 1140 | 950 | 1030 | 90.7 | 485 | 823 | 1300 | 929 | – | – | – | – | – | – | – | – | –
2 | O=C1c2ccccc2NC1(c1ccccc1)c1c(-c2ccccc2)[nH]c2ccccc12 (stereo not drawn) | > 100 | > 100 | > 100 | 64.1 | > 100 | > 100 | – | – | > 100 | 30.3 | > 100 | – | – | – | – | – | – | – | – | –
3 | CC1=C(C(=O)Nc2cc(=O)n(C)c(=O)n2C)C(c2ccc([N+](=O)[O-])cc2)C(C(=O)Nc2cc(=O)n(C)c(=O)n2C)=C(C)N1 | > 100 | > 100 | > 100 | > 100 | > 100 | > 100 | – | > 100 | > 100 | > 100 | > 100 | – | – | – | – | – | – | – | – | –
4 | CC1(C)OB(O)OC1(C)C | > 100 | > 100 | > 100 | > 100 | > 100 | > 100 | – | > 100 | > 100 | > 100 | > 100 | – | – | – | – | – | – | – | – | –
5 | O=S(=O)(N/N=C/c1cccc(Cl)c1Cl)c1ccccc1 | > 100 | > 100 | > 100 | > 100 | > 100 | > 100 | – | > 100 | > 100 | > 100 | > 100 | – | – | – | – | – | – | – | – | –
6 | CC(C)CC(=O)Nc1n[nH]c2c1CN(C(=O)C1CCN(C)CC1)C2(C)C | > 10 | > 10 | – | 4.04 | > 10 | > 10 | 1.48 | > 10 | > 10 | 4.97 | 4.14 | 1.35 | 1.15 | 1.22 | 0.79 | 0.895 | > 10 | 0.513 | 1.02 | –
7 | CN1C(c2ccccc2)CS(=O)(=O)CS1(=O)=O (stereo not drawn) | > 100 | > 100 | > 100 | > 100 | > 100 | > 100 | – | – | > 100 | – | > 100 | – | – | – | – | – | – | – | – | –
8 | CN(C)C/C=C/C(=O)Nc1cc2c(Nc3ccc(F)c(Cl)c3F)ncnc2cc1OCCOC(F)F | 9.86 | 10.2 | 4.46 | 1.6 | 5 | 9.58 | 1.31 | 4.67 | 2.96 | 6.96 | 2.47 | 1.72 | 0.596 | 0.241 | 0.422 | 1.24 | 0.491 | 1.74 | 0.162 | 1.45
9 | CN(C)CCNC(=O)c1cccc2c(Nc3ccc(S(N)(=O)=O)cc3)c3ccccc3nc12 | 8.02 | 7.29 | 3.42 | – | 8.35 | 1.96 | – | 3.05 | 7.07 | – | 4.48 | – | – | – | – | – | – | – | – | –
10 | O=Cc1ccc(-c2ccc(-c3nc4ccccc4o3)cc2)s1 | 87.8 | > 100 | 98.8 | > 100 | > 100 | > 100 | 31.5 | 90.2 | > 100 | > 100 | – | 24.2 | 70.5 | 49.4 | 53.8 | 71.2 | 34.2 | 12.7 | – | 30.7
11 | COc1ccc(Cc2cc3c(cc2OCC(=O)O)OCO3)cc1 | > 100 | > 100 | > 100 | > 100 | > 100 | > 100 | – | – | – | > 100 | – | – | – | – | – | – | – | – | – | –
12 | O=C(/C=N/O)Nc1cc(Cl)c(Cl)cc1Cl | 87.6 | > 100 | 76.3 | 95.3 | > 100 | > 100 | – | – | > 100 | 53.8 | 66.6 | – | – | – | – | – | – | – | – | –
13 | CN(C)CCSc1cccc(-c2cc(-c3cccc(SCCN(C)C)c3)nc(SCCN(C)C)n2)c1 | 3.52 | 3.47 | 32 | 2.8 | 3.4 | 3.95 | – | – | 4.67 | 3.67 | 12.1 | – | – | – | – | – | – | – | – | –
14 | COC(=O)CCC(=O)Nc1cc(Cl)ccc1Cl | > 100 | > 100 | > 100 | 65.8 | > 100 | > 100 | – | > 100 | > 100 | > 100 | – | – | – | – | – | – | – | – | – | –
15 | O=C(O)c1cc2ccccc2c(N=Nc2cc(C(F)(F)F)ccc2Cl)c1O | > 100 | > 100 | – | > 100 | > 100 | > 100 | – | > 100 | > 100 | > 100 | 0.0907 | – | – | – | – | – | – | – | – | –
16 | COc1ccc(NC(=O)CC/C(CC(=O)C(C)(C)C)=N\NC(=O)C(N)=O)cc1 | > 100 | > 100 | > 100 | > 100 | > 100 | > 100 | – | > 100 | > 100 | > 100 | – | – | – | – | – | – | – | – | – | –
17 | COc1ccc(C(=O)C(c2ccc(OC)cc2)C2OC(=O)C(Cl)=C2Cl)cc1 (stereo not drawn) | > 100 | > 100 | > 100 | > 100 | > 100 | > 100 | – | > 100 | > 100 | > 100 | – | – | – | – | – | – | – | – | – | –
18 | Clc1ccc(C2=Nn3c(nnc3-c3cc(Cl)cc(Cl)c3Cl)SC2)cc1 | 29.3 | > 100 | 70.9 | – | > 100 | > 100 | 51.9 | > 100 | > 100 | 30.7 | 34.2 | 11 | 56.5 | – | 9.26 | 17.4 | 22.3 | 7.26 | 14.8 | 21.6
19 | CC(=O)C1C(=O)NC(=O)C1=O (stereo not drawn) | > 100 | – | > 100 | > 100 | > 100 | > 100 | – | > 100 | > 100 | – | > 100 | – | – | – | – | – | – | – | – | –
20 | O=C(O)/C(Cl)=C(\Cl)C(=O)NC1C2CC3CC(C2)CC1C3 (stereo not drawn) | > 100 | > 100 | > 100 | – | > 100 | > 100 | – | > 100 | > 100 | > 100 | > 100 | – | – | – | – | – | – | – | – | –
